According to ChEMBL document CHEMBL5518236, “Discovery of Clinical Candidate AZD5462, a Selective Oral Allosteric RXFP1 Agonist for Treatment of Heart Failure” (J Med Chem, 2024):
pEC50: −log10 of the molar value.

Legend:
[1] = Octanol/water partition coefficient, logD of the compound at pH 7.4 by shake flask method; format: physicochemical
[2] = Metabolic stability in human hepatocytes assessed as intrinsic clearance measured per 10^6 viable cells/ml at 1 uM measured upto 120 mins by LC-MS/MS analysis; format: ADME, cell-based, Hepatocyte; conditions: read-out: CLH
[3] = Metabolic stability in human liver microsomes assessed as intrinsic clearance at 1 uM measured upto 30 mins by LC-MS/MS analysis; format: ADME, Microsome; conditions: read-out: CLH
[4] = Metabolic stability in human hepatocytes assessed as unbound intrinsic clearance measured per 10^6 viable cells/ml at 1 uM measured upto 120 mins by LC-MS/MS analysis; format: ADME, cell-based, Hepatocyte; conditions: 2 h
[5] = target: T1, Relaxin receptor 1 (Homo sapiens, UniProt Q9HBX9)
T1 sequence (Q9HBX9 whole entry): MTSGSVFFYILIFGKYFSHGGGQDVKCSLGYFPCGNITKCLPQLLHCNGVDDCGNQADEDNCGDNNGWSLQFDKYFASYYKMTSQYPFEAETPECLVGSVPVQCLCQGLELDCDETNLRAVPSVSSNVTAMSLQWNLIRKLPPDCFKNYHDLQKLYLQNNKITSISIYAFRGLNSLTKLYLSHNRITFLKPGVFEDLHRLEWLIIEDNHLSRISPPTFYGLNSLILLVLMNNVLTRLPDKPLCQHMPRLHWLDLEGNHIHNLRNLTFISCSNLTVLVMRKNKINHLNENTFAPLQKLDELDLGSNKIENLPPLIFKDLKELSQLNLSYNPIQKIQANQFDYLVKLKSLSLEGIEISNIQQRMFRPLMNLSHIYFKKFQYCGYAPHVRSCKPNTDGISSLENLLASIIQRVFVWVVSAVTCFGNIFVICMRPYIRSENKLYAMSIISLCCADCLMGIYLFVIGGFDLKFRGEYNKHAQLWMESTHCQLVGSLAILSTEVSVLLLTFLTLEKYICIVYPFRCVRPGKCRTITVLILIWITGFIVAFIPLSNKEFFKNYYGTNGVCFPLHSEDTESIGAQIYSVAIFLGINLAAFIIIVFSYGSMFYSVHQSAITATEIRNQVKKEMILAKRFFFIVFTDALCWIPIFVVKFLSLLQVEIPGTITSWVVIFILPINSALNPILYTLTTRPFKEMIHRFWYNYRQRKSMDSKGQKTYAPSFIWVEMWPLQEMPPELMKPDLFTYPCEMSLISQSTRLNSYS
Description: Agonist activity at human RXFP1 expressed in CHO cells assessed as increase in cAMP level measured after 2 hrs by HTRF cAMP assay

[6] = Metabolic stability in human liver microsomes assessed as unbound intrinsic clearance at 1 uM measured upto 30 mins by LC-MS/MS analysis; format: ADME, Microsome; conditions: 0.5 h

SMILES | logD [1] | hepatocyte CLint at 1 µM [2] [µL/min/1e6 cells] | microsomal CLint at 1 µM [3] [µL/min/mg] | CL free [4] [µL/min] | pEC50 [5] | CL free [6]
CC1(CNC(=O)[C@H]2[C@@H]3CC[C@@H](C3)[C@H]2NC(=O)c2cc(O[C@H]3CC[C@@](C)(C(=O)O)CC3)c(C#N)cn2)CCC1 | 2.4 | 3.1 | 17 | 4.2 | 7.00 | 20 µL/min/mg
CC1(CNC(=O)[C@H]2[C@@H]3CC[C@@H](C3)[C@H]2N2CCc3cc(F)c(O[C@H]4CC[C@@](C)(C(=O)O)CC4)cc3C2=O)CCC1 |  | 2.1 | 44 | 3 | 5.80 | 70 µL/min/mg
COc1cc(F)c(O[C@H]2CC[C@@](C)(c3noc(=O)[nH]3)CC2)cc1C(=O)N[C@@H]1[C@H]2CC[C@H](C2)[C@@H]1C(=O)NCC1(C)CCC1 | 3.8 | 12 | 87 |  | 7.10 | 212 µL/min/mg
COc1ccc(O[C@H]2CC[C@@](C)(C(=O)O)CC2)cc1C(=O)N[C@@H]1[C@H]2CC[C@H](C2)[C@@H]1C(=O)NCC1(C)CCC1 | 2.9 | 6.1 | 36 | 10 | 7.00 | 46 µL/min/mg
CC1(CNC(=O)[C@H]2[C@@H]3CC[C@@H](C3)[C@H]2NC(=O)c2cc(O[C@H]3CC[C@@](C)(C(=O)O)CC3)ccn2)CCC1 | 2.5 | 2.3 | 29 | 3.3 | 5.80 | 35 µL/min/mg
COCc1cc(OC)c(C(=O)N[C@@H]2[C@H]3CC[C@H](C3)[C@@H]2C(=O)NCC2(C)CCC2)cc1O[C@H]1CC[C@@](C)(C(=O)O)CC1 | 3 | 3.2 | 11 | 44 | 6.00 | 15 µL/min/mg
COc1cc(F)c(C[C@H]2CC[C@@](C)(C(=O)O)CC2)cc1C(=O)N[C@@H]1[C@H]2CC[C@H](C2)[C@@H]1C(=O)NCC1(C)CCC1 | 4.3 | 9.8 | 78 | 43 | 6.80 | 269 µL/min/mg
COc1cc(C(F)(F)F)c(O[C@H]2CC[C@@](C)(C(=O)O)CC2)cc1C(=O)N[C@@H]1[C@H]2CC[C@H](C2)[C@@H]1C(=O)NCC1(C)CCC1 | 4.1 | 3.9 | 20 | 93 | 7.50 | 44 µL/min/mg
CC1(CNC(=O)[C@H]2[C@@H]3CC[C@@H](C3)[C@H]2NC(=O)c2ccc(F)c(O[C@H]3CC[C@@](C)(C(=O)O)CC3)c2)CCC1 | 3 | 8.4 | 6.6 | 16 | 6.50 | 8.8 µL/min/mg
CC1(CNC(=O)[C@H]2C3CCC(C3)[C@H]2NC(=O)c2cc(O[C@H]3CC[C@@](C)(C(=O)O)CC3)c(C#N)cc2F)CCC1 (some centres undefined) | 3.3 | 7.9 | 14 | 16 | 7.80 | 27 µL/min/mg
COc1c(C#N)cc(O[C@H]2CC[C@@](C)(C(=O)O)CC2)cc1C(=O)N[C@@H]1[C@H]2CC[C@H](C2)[C@@H]1C(=O)NCC1(C)CCC1 | 2.9 | 11 | 50 | 16 | 7.10 | 69 µL/min/mg
COc1cc(F)c(O[C@H]2CC[C@@](C)(c3n[nH]c(=O)o3)CC2)cc1C(=O)N[C@@H]1[C@H]2CC[C@H](C2)[C@@H]1C(=O)NCC1(C)CCC1 | 5.4 | 73 | > 300 | 562 |  | 2.8 10^3uL/min/mg
COc1cc(S(C)(=O)=O)c(O[C@H]2CC[C@@](C)(C(=O)O)CC2)cc1C(=O)N[C@@H]1[C@H]2CC[C@H](C2)[C@@H]1C(=O)NCC1(C)CCC1 | 1.9 | 1.2 | 11 | 1.7 |  | 14 µL/min/mg
COc1cc(F)c(O[C@H]2CC[C@@](C)(c3nnn[nH]3)CC2)cc1C(=O)N[C@@H]1[C@H]2CC[C@H](C2)[C@@H]1C(=O)NCC1(C)CCC1 | 2.8 | 5.8 | 15 | 13 |  | 29 µL/min/mg
COc1cc(C#N)c(O[C@H]2CC[C@@](C)(C(=O)O)CC2)cc1C(=O)N[C@@H]1[C@H]2CC[C@H](C2)[C@@H]1C(=O)NCC1(C)CCC1 | 2.85 | 5.5 | 20 | 10 |  | 30 µL/min/mg
COc1cc(C2CC2)c(O[C@H]2CC[C@@](C)(C(=O)O)CC2)cc1C(=O)N[C@@H]1[C@H]2CC[C@H](C2)[C@@H]1C(=O)NCC1(C)CCC1 | 3.7 | 5.3 | 27 | 13 |  | 62 µL/min/mg
COc1cc(F)c(O[C@H]2CC[C@@](C)(C(=O)O)CC2)cc1C(=O)N[C@@H]1[C@H]2CC[C@H](C2)[C@@H]1C(=O)NCC(C)C | 2.6 | < 1 | 5.7 | < 1.4 |  | 7.6 µL/min/mg
CC1(CNC(=O)[C@H]2[C@@H]3CC[C@@H](C3)[C@H]2NC(=O)c2cc(O[C@H]3CC[C@@](C)(C(=O)O)CC3)c(F)cc2F)CCC1 | 2.9 | 6.7 | 37 | 10 |  | 49 µL/min/mg
COc1cc(C)c(O[C@H]2CC[C@@](C)(C(=O)O)CC2)cc1C(=O)N[C@@H]1[C@H]2CC[C@H](C2)[C@@H]1C(=O)NCC1(C)CCC1 | 3.5 | 3.1 | 38 | 4.9 |  | 54 µL/min/mg
COc1c(Cl)cc(O[C@H]2CC[C@@](C)(C(=O)O)CC2)cc1C(=O)N[C@@H]1[C@H]2CC[C@H](C2)[C@@H]1C(=O)NCC1(C)CCC1 | 3.3 | 13 | 81 | 31 |  | 147 µL/min/mg
CCc1cc(OC)c(C(=O)N[C@@H]2[C@H]3CC[C@H](C3)[C@@H]2C(=O)NCC2(C)CCC2)cc1O[C@H]1CC[C@@](C)(C(=O)O)CC1 | 4 | 3.9 | 44 | 9.1 |  | 83 µL/min/mg
